Measured values reported in a melting point compilation (Tetko et al.; mined from patent text by program, amines drawn as free bases though some values may be those of a salt).

Row | Compound | melting point [°C]
1 | O=C/C=C/C=C/c1ccc(OCC(F)(F)C(F)F)nc1 | 88 to 89
2 | CC(C)(C)OC(=O)Nc1cccc(C2CCN(c3nc4c(cc3F)c(=O)c(C(=O)O)cn4C3CC3)C2)c1 (stereo unspecified) | 210 to 211
3 | CC(O)(C#CI)c1ccc(OC(F)(F)F)cc1 (stereo unspecified) | 75 to 76
4 | CN1CC=C(c2cc3cc(Cl)ccc3o2)CC1 | 108 to 118
5 | O=c1oc2c(c(=O)n1C1CCCCC1)CCC2 | 72 to 74
6 | O=S(=O)(O)c1cccc2c1ccc1nc(O)c(O)nc12 | > 300
7 | CNC1CCc2[nH]c3c(F)cc(F)cc3c2C1 (stereo unspecified) | 135 to 138
8 | Cc1nc(-c2ccc(C#N)cc2)sc1C(=O)N1CO[C@@](Cn2cncn2)(c2ccc(F)cc2F)[C@H]1C | 200 to 201
9 | Cc1cccc(=O)c(NC(=O)C2=C(O)c3ccccc3S(=O)(=O)N2C)c1 | 235 to 242
10 | CCc1cc(S(=O)(=O)C(Br)(Br)Br)ccc1C(N)=O | 175 to 177
11 | CCOC(=O)c1c(C2CCNCC2)[nH]c(-c2cccc(C(F)(F)F)c2)c1-c1ccncc1 | 233 to 235
12 | CN(C)C=C1CCN(Cc2ccc([N+](=O)[O-])cc2)c2ccsc2C1=O | 214 to 216
13 | CCC1(O)CC(=O)OCc2c1cc1n(c2=O)Cc2c-1nc1ccccc1c2CC[Si](C)(C)C (stereo unspecified) | > 250
14 | COc1ccc(F)cc1C(C)(C)CC(O)(CN1CC(C)NC(C)C1)C(F)(F)F (stereo unspecified) | 61 to 62
15 | CCCn1c(=O)[nH]c2ccc(C(=O)c3ncc4ccc(C(=O)O)cn34)cc2c1=O | 384
16 | Oc1ccc2c(c1)Sc1ccccc1CN2 | 172 to 174
17 | O=C(Cc1cc(C(F)(F)F)ns1)c1ccc(Cl)cc1 | 109 to 110
18 | Nc1ncc(-c2ccncn2)c(-c2ccco2)n1 | 222
19 | COc1ccc(-c2cc3ccccc3[nH]2)cc1NC(=S)NCCNC(=O)OC(C)(C)C | 159 to 160
20 | CCn1cnc2c(C#N)nc(Cl)cc21 | 138
21 | CCOC(=O)C1=C(CCl)NC(C)=C(C(=O)OC)C1c1cccc(C(F)(F)F)c1 (stereo unspecified) | 115 to 116
22 | CC(=O)Nc1ccc(NC(=O)C=C2CC(C(=O)OCc3ccccc3)Nc3cc(Cl)cc(Cl)c32)cc1 (racemic) | 275
23 | CNC(=O)n1c(=O)n(CCCN2CCN(C(c3ccccc3)c3ccccc3)CC2)c2ccccc21 | 153
24 | CCOC(=O)/C=C1\CCOc2ccc(N)cc21 | 97

Row | Compound | melting point [°C]
25 | CCCCCCC(C)OS(=O)(=O)NC(=O)Nc1c(C(C)C)cccc1C(C)C (stereo unspecified) | 109 to 113
26 | O=C(Nc1ccc2[nH]c(=O)oc2c1)C(=O)N1CCC(Cc2ccc(C(F)(F)F)cc2)CC1 | 217
27 | O=CN(Cc1ccccn1)C1(c2ccc(-c3ccccc3)cc2)CCC1 | 101
28 | CS(=O)(=O)Nc1cc2c(cc1Oc1ccc(F)cc1F)CCC2 | 85 to 87
29 | Cc1c(CNCC(C)C)n(C)c2ccc(NC(=O)c3ccc(OCC4CC4)cc3)cc12 | 142 to 143
30 | CNC(=O)c1ccc(-c2cnc3oc(=O)n(Cc4cccc(OC)c4)c3n2)cc1 | 168 to 169
31 | Fc1ccc(-c2ncnc(C(F)F)c2Cl)c(F)c1 | 69 to 71
32 | C=CCCC(=O)N1CCc2nnc(NN)cc2C1 | 132 to 134
33 | COc1ccc2c(c1)[C@@]1(C(=O)O)CC=CC[C@H]1CC2 (relative stereo) | 125
34 | CCSc1c(C(F)(F)F)nn(-c2c(Cl)cc(C(F)(F)F)cc2Cl)c1N | 116
35 | Cc1ccccc1C(C(=O)N[C@H]1CCN(CCc2ccc(F)cc2)C1)c1ccccc1C | 108 to 110
36 | COC(=O)C(=Cc1cc(OC)cc(OC)c1)c1ccc(Oc2ccc(C=O)cc2)cc1 | 108 to 110
37 | Cc1cccc(C)c1N1CCc2c(C)nc3ccccc3c21 | 149 to 152
38 | O=c1ccc(-c2c(-c3ccccc3)nn3ccccc23)nn1CC1(O)CCNCC1 | > 260
39 | CC(=O)OCC1OC(n2cc(Cc3ccc(OC(F)(F)F)cc3)c3c(Cl)cccc32)C(OC(C)=O)C(OC(C)=O)C1OC(C)=O (stereo unspecified) | 193 to 194
40 | CC(=O)OC1CSC(Oc2cc(F)cnc2C#N)C(OC(C)=O)C1OC(C)=O (stereo unspecified) | 150
41 | Cc1sc(CO)c(C)c1Br | 85 to 90
42 | CONS(=O)(=O)c1ccccc1S(=O)(=O)NC(=O)Nc1nc(C)cc(C)n1 | 218 to 219
43 | CCCC(=O)c1cnc2c(C(N)=O)cccc2c1Nc1ccccc1C | 185 to 187
44 | NC(Cc1cccc(C(F)(F)F)c1)=NO | 91 to 92
45 | CCOCc1nc2c(N)nc(C)cc2n1CCOCc1ccccc1 | 127 to 128
46 | O=C(CNC(=O)c1cccc(-c2cccc3oc(Cc4cccc(C(F)(F)F)c4)cc23)c1)NCCO | 89 to 94
47 | Cc1ccc(SSc2ccc(C)cc2C(=O)Nc2ccc(S(N)(=O)=O)cc2)c(C(=O)Nc2ccc(S(N)(=O)=O)cc2)c1 | 307
48 | Cc1cc(Br)cnc1CCCNc1ncc(Cc2cccnc2)cc1O | 141 to 143

Row | Compound | melting point [°C]
49 | C=CN1Cc2ccccc2-c2ccc(Cl)cc2C1=O | 170 to 172
50 | Cc1ccc(Cl)cc1NC(=S)Nc1nccs1 | 197 to 198
51 | CNc1ccc(Cl)cc1C(=N)c1ccccc1 | 93 to 95
52 | On1nnc2cccnc21 | 216 to 217
53 | COC[C@@H]1CC(c2ccc(-c3ccc(N4C[C@H](Cn5ccnn5)OC4=O)cc3F)cn2)=NO1 | 161
54 | Cc1cccc(-c2nsc(=O)o2)c1 | 82.5 to 84
55 | Cn1cc(C(=O)O)c2nc3ncccc3cc2c1=O | > 300
56 | O=C1c2ccccc2C(=O)N1CC(=O)N1c2ccccc2N(Cc2ccc(Cl)cc2)C(=O)[C@H]2CCC[C@H]21 (relative stereo) | 205 to 206
57 | COc1cccc(NC(=O)c2ccccc2C)c1 | 142 to 143
58 | O=C(O)CCSC1c2ccccc2COc2ccc(OCc3ccc4ccc(OC(F)F)cc4n3)cc21 (stereo unspecified) | 180 to 184
59 | CC1(C)Nc2ccc(C#N)cc2C(NC(=NC#N)Nc2ccccc2)C1O (stereo unspecified) | 218 to 219
60 | Cc1nc(NC(=O)CCCc2ccccc2)sc1C(=O)NCc1ccccc1 | 45 to 46
61 | Cc1cc(C)cc(CNC(=O)C(Cc2c[nH]c3ccccc23)NC(=O)c2ccccc2)c1 (stereo unspecified) | 177 to 178
62 | COc1cc(Oc2nn(C)c(C(F)(F)F)c2Cl)ccc1[N+](=O)[O-] | 71 to 73.5
63 | Cc1cccc2[nH]c(C(=O)OC(C)C)c(Sc3ccc(Cl)cc3)c12 | 190 to 192
64 | O=S(=O)(c1ccc(Cl)cc1)C(CCSCCO)c1cc(F)ccc1F (stereo unspecified) | 108 to 110
65 | Cc1nc2c(N)nc3ccccc3c2n1CCCNC(=O)C1CCCCC1 | 234 to 235
66 | CCCCc1oc2ccccc2c1-c1ncc(-c2ccc3cc(OCc4ccc(C(=O)OC)cc4C(=O)OC)ccc3c2)o1 | 195 to 197
67 | C=C(C(=O)NC1CCCCC1)c1ccccc1 | 131 to 133
68 | Cc1ccc(S(=O)(=O)n2cc(/C=C/C(=O)N(C)C)nc2C)cc1 | 162 to 163
69 | Cc1ccccc1-c1c(NC(=O)C=Cc2ccc(O)c(O)c2)c(=O)oc2cc3c(cc12)CCC3 | 295 to 297
70 | COCCOCCn1cc(C(=O)NCc2ccc(Cl)cc2)c(=O)c2cc(CN3CC[C@@H](O)C3)ccc21 | 106 to 109
71 | O=C(c1cc(=O)c2cc(O)ccc2[nH]1)N1CCC(Cc2ccc(Cl)cc2)CC1 | 194
72 | CC1(C)Oc2c(N)c(Cl)cc(Cl)c2C1=O | 168 to 170

Row | Compound | melting point [°C]
73 | C=Cn1cc(C(=O)OCC)c(=O)c2cc(F)c(N3CCN(C)CC3)cc21 | 186 to 188
74 | CCCCCCCCCCC[C@@H]1CC(=O)CC(=O)O1 | 82 to 85
75 | Cc1ccc(Cn2[nH]c(N)cc2=O)cc1C(F)(F)F | 103
76 | CNC(=O)c1c(N)cc(Cl)cc1Cl | 159 to 162
77 | CCOC(=O)C1=C(C)Nc2ncnc(OC(C)C)c2C1c1ccccc1 (stereo unspecified) | 201 to 202
78 | COc1ccc2c(C3CCN(CCCn4c(=O)[nH]c5ccccc54)CC3)noc2c1 | 176 to 178
79 | COc1ccc(P(=O)(c2ccc(OC)cc2)c2ccc(OC)cc2)cc1 | 145
80 | Cc1cc(F)ccc1-c1nc(OCC(N)S(C)(=O)=O)nc2c1ccc(=O)n2-c1c(F)cccc1F (stereo unspecified) | 95 to 99
81 | O=C1Cc2cccc(-c3ccccc3)c2C1 | 133 to 136
82 | CCC(CC)Oc1cc(C)nc(Oc2c(C)cc(C)cc2C)c1C | 72.5 to 74
83 | CON=C(OCC(=O)OC)C(Cl)=Cc1cc(-n2ncc(C(F)(F)F)c(C)c2=O)c(F)cc1Cl | 75 to 76
84 | COCCOc1ccc(/C=C/C(=O)NS(=O)(=O)c2cccc(C)c2)c(Oc2ncc(C(F)(F)F)cc2Cl)c1 | 147 to 148
85 | CCCCC1=C(C#N)C(c2cccc3nonc23)c2c[nH]nc2N1 (stereo unspecified) | 200
86 | CCOC(=O)c1ccc(C#CC(O)c2cc(C(C)(C)C)cc(C(C)(C)C)c2OCOC)cc1 (stereo unspecified) | 89 to 91
87 | O=C(O)CCCOc1cccc(CCCCCCOc2cc(-c3ccsc3)cc(-c3ccc4c(c3)OCO4)c2)c1CCC(=O)O | 110 to 112
88 | O=C(OCc1ccccc1)c1ccc(OC(=O)c2cccc(C(=O)Oc3ccc(C(=O)OCc4ccccc4)cc3)c2)cc1 | 105 to 107
89 | O=C(O)c1ccc(-n2cnnc2S)cc1 | > 300
90 | COc1cc2cc(-c3ccc(OCC(O)CNC(C)C)cc3)n(C)c(=O)c2cc1OC (stereo unspecified) | 206 to 207
91 | Cc1nc2ccccc2n2cnc(C(=O)OC(C)C)c12 | 182 to 183
92 | CCc1[nH]n(C2CCCC2)c2nc(-c3ccnc4ccccc34)nc(=O)c1-2 | 205 to 206
93 | CCOC(=O)C1=C(C)NC(c2ccc([N+](=O)[O-])cc2)=C(C(=O)OCC)C1c1cccc([N+](=O)[O-])c1 (stereo unspecified) | 176 to 177
94 | CCCCN(CCCC)c1cc(OC)c(C=Cc2cccs2)c(OC)c1 | 90
95 | CC(C)Oc1ccc2nc(COc3ccc(CC4SC(=O)N(C(c5ccccc5)(c5ccccc5)c5ccccc5)C4=O)cc3)n(C)c2n1 (stereo unspecified) | 90 to 100
96 | Cc1nn(-c2ccc(Cl)cc2)cc1C(=O)N(CC(=O)O)c1ccc(OCC(C)(C)C)c(C#N)c1 | 186 to 189
